Assay results from patent publication US20220204510A1, “2,3-DIHYDRO-1H-PYRROLIZINE-7-FORMAMIDE DERIVATIVE AND APPLICATION THEREOF” (CHIA TAI TIANQING PHARMACEUTICAL GROUP CO., LTD., priority 2018, published 2022).
pEC50, pIC50: −log10 of the molar value.

What follows are molecules tested against T1, CYP2C19 (Homo sapiens, UniProt P33261) (assay: Inhibition of human liver microsomal cytochrome P450 isoenzymes). Conditions: human liver microsomes.
T1 construct: from tissue; host or cells: human liver microsomes
T1 sequence (P33261 whole entry): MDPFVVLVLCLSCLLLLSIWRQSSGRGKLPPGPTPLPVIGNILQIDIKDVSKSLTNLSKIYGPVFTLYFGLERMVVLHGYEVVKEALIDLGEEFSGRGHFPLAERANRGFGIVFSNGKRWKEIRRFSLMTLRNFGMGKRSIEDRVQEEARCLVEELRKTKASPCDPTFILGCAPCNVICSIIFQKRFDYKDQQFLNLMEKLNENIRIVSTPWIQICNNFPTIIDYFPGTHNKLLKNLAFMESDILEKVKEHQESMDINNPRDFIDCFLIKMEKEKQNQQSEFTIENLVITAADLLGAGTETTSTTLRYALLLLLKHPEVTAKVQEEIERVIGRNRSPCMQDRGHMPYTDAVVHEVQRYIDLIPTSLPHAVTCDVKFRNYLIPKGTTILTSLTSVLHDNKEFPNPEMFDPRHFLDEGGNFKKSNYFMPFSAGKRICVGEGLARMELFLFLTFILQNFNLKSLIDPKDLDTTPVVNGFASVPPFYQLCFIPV
Format: in vitro ADME
Experimental: (§1) Experimental objective: to determine the inhibitory effect of the test compound on the activity of human liver microsomal cytochrome P450 isoenzymes (CYP1A2, CYP2C9, CYP2C19, CYP2D6 and CYP3A4). Experimental procedures: first, the test compound (10 mM) was diluted in gradient to prepare working solutions (100× final concentration) at concentrations of: 5, 1.5, 0.5, 0.15, 0.05, 0.015, and 0.005 mM, and working solutions of positive inhibitors for P450 isoenzymes (CYP1A2, CYP2C9, CYP2C19, CYP2D6, and CYP3A4) and the specific substrate mixtures thereof (5 in 1) were prepared simultaneously; human liver microsomes frozen in a−80° C. refrigerator were thawed on ice, and after all thawed, the human liver microsomes were diluted with PB to prepare a working solution at a specific concentration (0.253 mg/mL); 20 μL of the substrate mixture (20 μL of PB was added into the blank well) and 158 μL of the working solution of human liver microsomes were added into the reaction plate which was then placed on ice for use; then 2 μL of the test compound at each concentration (N=1) and a specific inhibitor (N=2) were added into the corresponding well, and the group without the inhibitor (test compound or the positive inhibitor) was added with a corresponding organic solvent as a control sample (the test compound control sample was 1:1 DMSO:MeOH; the positive control sample was 1:9 DMSO:MeOH); after pre-incubation under a 37° C. water bath for 10 min, 20 μL of a coenzyme factor (NADPH) solution was added into the reaction plate and incubated under a 37° C. water bath for 10 min, 400 μL of a cold acetonitrile solution (the internal standard was 200 ng/mL Tolbutamide and Labetalol) was added to terminate the reaction, and the reaction plate was placed on a shaker and shaken for 10 min; after centrifugation at 4,000 rpm for 20 min, 200 μL of the supernatant was collected and added to 100 μL of water to dilute the sample, and, finally, the plate was sealed, oscillated shaken evenly, and subjected to LC/MS/MS detection.

`CC1(NC(=O)C(=O)c2c(Cl)c(C(=O)Nc3ccc(F)c(F)c3)c3n2CCC3)CCOCC1` [Compound 2] showed a pIC50 of under 4.30.

The molecules below were run against T2, CYP1A2 (Homo sapiens, UniProt P05177) in the same assay as above. Conditions: human liver microsomes.
T2 construct: from tissue; host or cells: human liver microsomes
T2 sequence (P05177 1-516): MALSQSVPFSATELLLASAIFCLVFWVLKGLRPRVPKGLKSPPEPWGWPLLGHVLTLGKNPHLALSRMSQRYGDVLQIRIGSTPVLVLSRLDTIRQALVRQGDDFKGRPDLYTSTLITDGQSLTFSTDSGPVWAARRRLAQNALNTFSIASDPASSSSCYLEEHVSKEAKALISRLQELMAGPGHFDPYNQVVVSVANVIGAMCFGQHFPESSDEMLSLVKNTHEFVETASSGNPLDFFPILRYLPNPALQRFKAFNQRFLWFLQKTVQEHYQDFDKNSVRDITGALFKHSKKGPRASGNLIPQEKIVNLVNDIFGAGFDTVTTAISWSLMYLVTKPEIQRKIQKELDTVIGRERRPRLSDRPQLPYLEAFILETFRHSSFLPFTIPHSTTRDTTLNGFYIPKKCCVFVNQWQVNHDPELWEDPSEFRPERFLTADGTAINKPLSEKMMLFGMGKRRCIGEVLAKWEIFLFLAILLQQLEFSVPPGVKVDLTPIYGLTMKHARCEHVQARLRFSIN
Format: in vitro ADME
Experimental: as §1

In the case of `CC1(NC(=O)C(=O)c2c(Cl)c(C(=O)Nc3ccc(F)c(F)c3)c3n2CCC3)CCOCC1` [Compound 2], the pIC50 was under 4.30.

These molecules were tested against T3, CYP3A4 (Homo sapiens, UniProt P08684) in the same assay as above. Conditions: human liver microsomes.
T3 construct: from tissue; host or cells: human liver microsomes
T3 sequence (P08684 whole entry): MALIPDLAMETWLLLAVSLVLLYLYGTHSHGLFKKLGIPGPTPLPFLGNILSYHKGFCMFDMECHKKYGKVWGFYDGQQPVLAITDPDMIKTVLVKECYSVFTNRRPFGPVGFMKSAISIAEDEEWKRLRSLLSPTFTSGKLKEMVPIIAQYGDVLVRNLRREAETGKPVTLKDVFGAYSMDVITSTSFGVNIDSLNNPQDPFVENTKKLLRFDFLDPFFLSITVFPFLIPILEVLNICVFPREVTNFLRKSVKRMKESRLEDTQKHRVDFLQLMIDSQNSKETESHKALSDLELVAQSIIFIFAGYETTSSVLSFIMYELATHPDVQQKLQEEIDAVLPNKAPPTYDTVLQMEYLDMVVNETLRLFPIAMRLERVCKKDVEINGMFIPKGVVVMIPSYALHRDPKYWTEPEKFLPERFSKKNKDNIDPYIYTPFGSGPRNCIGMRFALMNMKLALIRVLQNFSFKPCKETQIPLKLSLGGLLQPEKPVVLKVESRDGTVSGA
Format: in vitro ADME
Experimental: as §1

Molecule `CC1(NC(=O)C(=O)c2c(Cl)c(C(=O)Nc3ccc(F)c(F)c3)c3n2CCC3)CCOCC1` [Compound 2] has a pIC50 of under 4.30.

What follows are molecules tested against T4, CYP2C9 (Homo sapiens, UniProt P11712) in the same assay as above. Conditions: human liver microsomes.
T4 construct: from tissue; host or cells: human liver microsomes
T4 sequence (P11712 whole entry): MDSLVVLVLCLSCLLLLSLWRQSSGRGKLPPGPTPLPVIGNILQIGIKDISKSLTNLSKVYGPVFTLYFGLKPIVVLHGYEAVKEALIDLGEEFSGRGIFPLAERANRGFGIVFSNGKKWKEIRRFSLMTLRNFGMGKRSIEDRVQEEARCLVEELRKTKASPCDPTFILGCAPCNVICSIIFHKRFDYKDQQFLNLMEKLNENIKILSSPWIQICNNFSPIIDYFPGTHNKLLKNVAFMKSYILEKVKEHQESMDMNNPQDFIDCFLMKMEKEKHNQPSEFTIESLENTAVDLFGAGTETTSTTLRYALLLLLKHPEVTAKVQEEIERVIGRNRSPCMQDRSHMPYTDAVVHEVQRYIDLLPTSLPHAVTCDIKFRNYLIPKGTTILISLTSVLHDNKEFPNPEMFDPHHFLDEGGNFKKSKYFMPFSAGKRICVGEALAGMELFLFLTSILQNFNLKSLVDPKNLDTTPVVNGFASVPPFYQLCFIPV
Format: in vitro ADME
Experimental: as §1

`CC1(NC(=O)C(=O)c2c(Cl)c(C(=O)Nc3ccc(F)c(F)c3)c3n2CCC3)CCOCC1` [Compound 2] showed a pIC50 of under 4.30.

These molecules were tested against T5, CYP2D6 (Homo sapiens, UniProt P10635) in the same assay as above. Conditions: human liver microsomes.
T5 construct: from tissue; host or cells: human liver microsomes
T5 sequence (P10635 whole entry): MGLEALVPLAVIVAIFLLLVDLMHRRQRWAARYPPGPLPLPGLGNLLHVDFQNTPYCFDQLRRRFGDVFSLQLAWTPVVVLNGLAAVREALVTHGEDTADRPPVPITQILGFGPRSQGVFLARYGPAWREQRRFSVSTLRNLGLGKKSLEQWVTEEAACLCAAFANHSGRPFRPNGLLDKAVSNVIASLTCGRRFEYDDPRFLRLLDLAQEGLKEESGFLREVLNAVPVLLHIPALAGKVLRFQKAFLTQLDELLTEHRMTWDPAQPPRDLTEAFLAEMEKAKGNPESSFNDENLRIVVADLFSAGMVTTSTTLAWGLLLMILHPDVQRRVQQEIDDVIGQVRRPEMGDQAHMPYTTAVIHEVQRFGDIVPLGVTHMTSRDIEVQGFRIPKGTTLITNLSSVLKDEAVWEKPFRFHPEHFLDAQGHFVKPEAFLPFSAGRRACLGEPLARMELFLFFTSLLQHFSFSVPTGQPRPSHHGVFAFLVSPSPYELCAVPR
Format: in vitro ADME
Experimental: as §1

Work on `CC1(NC(=O)C(=O)c2c(Cl)c(C(=O)Nc3ccc(F)c(F)c3)c3n2CCC3)CCOCC1` [Compound 2] yielded a pIC50 of under 4.30.

These molecules were tested on HBV (assay: qPCR test in the HBV in vitro test (HBV DNA in HepG2.2.15 cells)). Conditions: Hepatitis B virus, 192 h, HBV DNA in HepG2.2.15 culture medium, day 8, read-out: Half maximal inhibitory concentration (EC50) of HBV.
Format: cell-based
Experimental: To evaluate the inhibitory effect of the compound on HBV by detecting content of HBV DNA in HepG2.2.15 cells in a real-time qPCR test, with EC50 of the compound as an indicator.
3.1. HepG2.2.15 cells (4×10^4 cells/well) were inoculated into a 96-well plate and cultured at 37° C. in 5% CO2 overnight. 3.2. On day 2, the compound was 3-fold diluted in gradient for a total of 8 dilution gradients. The compound at different concentrations was added into the culture wells in duplicate. The final concentration of DMSO in the culture medium was 1%. 1 μM GLS4 was used as a 100% inhibition control (the structure of GLS4 disclosed in WO2008154817A1 is as follows:
1% DMSO was used as a 0% inhibition control. 3.3. On day 5, the culture medium was replaced with a fresh culture medium containing the compound. 3.4. On day 8, the culture medium in the culture wells was collected, and the high-throughput DNA purification kit (Qiagen-51162) was used to extract DNA. For specific steps, refer to the product manual.
3.6. Each well of the 96-well PCR plate was added with 15 μL of the reaction mixture, and then with 10 μL of sample DNA or HBV DNA standard. 3.7. The reaction conditions for PCR: heating at 95° C. for 10 min, degeneration at 95° C. for 15 s, and extension at 60° C. for 1 min, with a total of 40 cycles.
3.8.1. Calculation of the inhibition percentage: % Inh.=[1−(DNA copy number in the sample−DNA copy number in 1 μM GLS4)/(DNA copy number in the DMSO control−DNA copy number in 1 μM GLS4)]×100. 3.8.2. Calculation of EC50: half maximal inhibitory concentration (EC50) of the compound for HBV was calculated using GraphPad Prism software. 3.8.3.

Compared with `CC1(NC(=O)C(=O)c2cc(C(=O)Nc3ccc(F)c(F)c3)c3n2CCC3)CCOCC1` [Compound 1], `CC1(NC(=O)C(=O)c2cc(C(=O)Nc3ccc(F)c(F)c3)c3n2CCCC3)CCOCC1` [Compound 6] is 0.50 log units lower in pEC50: 7.46 for the first, 6.96 for the second.

First: CC1(NC(=O)C(=O)c2c(Cl)c(C(=O)Nc3ccc(F)c(F)c3)c3n2CCC3)CCOCC1 [Compound 2]
Second: Cc1c(C(=O)Nc2ccc(F)c(F)c2)c2n(c1C(=O)C(=O)NC1(C)CCOCC1)CCC2 [Compound 3]
The pEC50 of the first is 0.22 log units higher: 8.52 for the first, 8.30 for the second.

Going from `CC1(NC(=O)C(=O)c2c(Cl)c(C(=O)Nc3ccc(F)c(F)c3)c3n2CCC3)CCN(CC(=O)O)CC1` [Compound 4] to `CC1(NC(=O)C(=O)c2c(Cl)c(C(=O)Nc3ccc(F)c(F)c3)c3n2CCC3)CCC(CC(=O)O)CC1` (stereo not shown) [Compound 13], the pEC50 rises from 6.24 to 7.72 (1.48 log units).

`CC1(NC(=O)C(=O)c2c(Cl)c(C(=O)Nc3ccc(F)c(C#N)c3)c3n2CCC3)CCOCC1` [Compound 5] and `N#CC1(NC(=O)C(=O)c2c(Cl)c(C(=O)Nc3ccc(F)c(F)c3)c3n2CCC3)CCOCC1` [Compound 12] are within 0.2 log units of each other in pEC50: 8.15 for the first, 8.30 for the second.

Going from `CC1(NC(=O)C(=O)c2c(Cl)c(C(=O)Nc3ccnc(Cl)c3)c3n2CCC3)CCOCC1` [Compound 7] to `CC1(NC(=O)C(=O)c2c(Cl)c(C(=O)Nc3cc(F)c(F)c(F)c3)c3n2CCC3)CCOCC1` [Compound 10], the pEC50 rises from 7.52 to 8.70 (1.18 log units). The second is the more potent here.

Going from `CC1(NC(=O)C(=O)c2c(Br)c(C(=O)Nc3ccc(F)c(F)c3)c3n2CCC3)CCOCC1` [Compound 8] to `CC1(NC(=O)C(=O)c2c(C(F)(F)F)c(C(=O)Nc3ccc(F)c(F)c3)c3n2CCC3)CCOCC1` [Compound 9], the pEC50 falls from 8.05 to 7.39 (0.66 log units).

Going from `COCC1(NC(=O)C(=O)c2c(Cl)c(C(=O)Nc3ccc(F)c(F)c3)c3n2CCC3)CCOCC1` [Compound 11] to `C[C@]1(NC(=O)C(=O)c2c(Cl)c(C(=O)Nc3ccc(F)c(F)c3)c3n2CCC3)CC[C@H](C(=O)O)CC1` [Compound 19], the pEC50 falls from 8.40 to 7.70 (0.70 log units). The first is the more potent here.

Compared with `C[C@@H](NC(=O)C(=O)c1c(Cl)c(C(=O)Nc2ccnc(Cl)c2)c2n1CCC2)C(F)(F)F` [Compound 14], `CC(C)(CCC(=O)O)NC(=O)C(=O)c1c(Cl)c(C(=O)Nc2ccc(F)c(F)c2)c2n1CCC2` [Compound 16] is 0.24 log units higher in pEC50: 7.15 for the first, 7.39 for the second.

First: O=C(NC12CCC(C(=O)O)(CC1)CC2)C(=O)c1c(Cl)c(C(=O)Nc2ccc(F)c(F)c2)c2n1CCC2 [Compound 15]
Second: C[C@]1(NC(=O)C(=O)c2c(Cl)c(C(=O)Nc3ccc(F)c(F)c3)c3n2CCC3)CC[C@@H](C(=O)O)CC1 [Compound 20]
The pEC50 of the first is 0.53 log units lower: 7.43 for the first, 7.96 for the second. The second is the more potent here.

Compared with `C[C@]1(NC(=O)C(=O)c2c(Cl)c(C(=O)Nc3ccc(F)c(F)c3)c3n2CCC3)CC[C@@H](CCC(=O)O)CC1` [Compound 21], `C[C@]1(NC(=O)C(=O)c2c(Cl)c(C(=O)Nc3ccc(F)c(F)c3)c3n2CCC3)CC[C@H](CCC(=O)O)CC1` [Compound 22] is 0.67 log units lower in pEC50: 8.52 for the first, 7.85 for the second.

Going from `CC(C)(CCCC(=O)O)NC(=O)C(=O)c1c(Cl)c(C(=O)Nc2ccc(F)c(F)c2)c2n1CCC2` [Compound 23] to `CC(C)(CCCCC(=O)O)NC(=O)C(=O)c1c(Cl)c(C(=O)Nc2cc(F)c(F)c(F)c2)c2n1CCC2` [Compound 27], the pEC50 rises from 7.57 to 7.92 (0.35 log units).

Going from `N#CC1(NC(=O)C(=O)c2c(Cl)c(C(=O)Nc3ccc(F)c(F)c3)c3n2CCC3)CCC(CC(=O)O)CC1` (stereo not shown) [Compound 24] to `N#CC1(NC(=O)C(=O)c2c(Cl)c(C(=O)Nc3cc(F)c(F)c(F)c3)c3n2CCC3)CCC(CC(=O)O)CC1` (stereo not shown) [Compound 26], the pEC50 rises from 6.52 to 6.76 (0.24 log units).

`CC(C)(C)OC(=O)C[C@H]1CC[C@](C)(NC(=O)C(=O)c2c(Cl)c(C(=O)Nc3cc(F)c(F)c(F)c3)c3n2CCC3)CC1` [Compound 25-3] and `COC(=O)C[C@H]1CC[C@](C)(NC(=O)C(=O)c2c(Cl)c(C(=O)Nc3cc(F)c(F)c(F)c3)c3n2CCC3)CC1` [Compound 31] are within 0.2 log units of each other in pEC50: 8.40 for the first, 8.30 for the second.

`O=C(O)CC1CCC(NC(=O)C(=O)c2c(Cl)c(C(=O)Nc3cc(F)c(F)c(F)c3)c3n2CCC3)(C(F)(F)F)CC1` (stereo not shown) [Compound 28] and `O=C(O)C[C@H]1CC[C@](NC(=O)C(=O)c2c(Cl)c(C(=O)Nc3cc(F)c(F)c(F)c3)c3n2CCC3)(C(F)(F)F)CC1` [Compound 29] are within 0.2 log units of each other in pEC50: 8.70 for the first, 8.52 for the second.

Work on `O=C(O)C[C@H]1CC[C@@](NC(=O)C(=O)c2c(Cl)c(C(=O)Nc3cc(F)c(F)c(F)c3)c3n2CCC3)(C(F)(F)F)CC1` [Compound 30] yielded a pEC50 of 9.00.
